We go through three compounds from paper PMC6149822, “A New Series of Pyrrole-Based Chalcones: Synthesis and Evaluation of Antimicrobial Activity, Cytotoxicity, and Genotoxicity” (Molecules : A Journal of Synthetic Chemistry and Natural …, 2017).

For orientation: MIC means the lowest concentration that inhibits growth of the organism. Usually IC50 stands for the concentration that gives 50% inhibition. High values mean weaker potency in that assay, low ones greater potency in that assay. Usually melting point stands for the temperature of the solid-liquid transition.

Converted amounts (≈) assume the structure as drawn.

One series has as its system C. albicans (ATCC 90028). Put plainly: Microdilution susceptibility assay (MIC). In kind it is cell-based. Conditions: Candida albicans, ATCC90028. As to the method: (§1) Compounds 1–10 were screened for their antimicrobial activity against gram-negative bacteria, gram-positive bacteria, and yeasts, listed in Table 1. Bacteria were grown in Mueller-Hinton Broth and yeasts were grown in Sabouraud Dextrose Broth (SDB) during experiments. Overnight cultures were prepared routinely by subculturing of stock culture onto Mueller-Hinton Agar for bacteria and Sabouraud Dextrose Agar for yeasts.
(§2) Microdilution susceptibility assay was used for the determination of antibacterial and anticandidal efficacy of compounds 1–10. Chloramphenicol and ketoconazole were used as positive controls for bacteria and yeasts, respectively. All experiments were designed according to the Clinical Laboratory Standards Institute (CLSI). All chemicals were dissolved in dimethyl sulfoxide (DMSO) to obtain stock solution (10 mg/mL). Two-fold serial dilutions (800, 400, 200...0.78 µg/mL) of the compounds were prepared from stock solutions with dH2O. 100 µL of each solution was transferred to 96-well microtiter plates and 100 µL of 10^6 CFU/mL of bacteria and 2 × 10^3 of CFU/mL yeast were added to related wells. As negative controls, wells including microorganisms without agents and wells including agents without microorganisms were used. The plates were kept at 35 °C for 18–20 h and the growth was determined with resazurin (20 mg/mL). Assays were carried out in triplicate.

Another series relates to E. coli (ATCC 25922). Put plainly: Microdilution susceptibility assay (MIC). The following applies: Escherichia coli, ATCC25922. In kind it is cell-based. As to the method: as §1, §2
On the technique in general: Dilution methods test growth across graded concentrations, often in twofold steps.

Series [1] has as its system E. faecalis (ATCC 29212). Put plainly: Microdilution susceptibility assay (MIC). The format is cell-based. Conditions: Enterococcus faecalis, ATCC29212. Here is the method: as §1, §2
Series [2] deals with E. faecalis (ATCC 51299). Kind of series: Microdilution susceptibility assay (MIC). Conditions: Enterococcus faecalis, ATCC51299. The format is cell-based. Here is the method:
as §1, §2

Series [3] concerns K. pneumoniae (ATCC 700603). Kind of series: Microdilution susceptibility assay (MIC). The format is cell-based. The following applies: Klebsiella pneumoniae, ATCC700603. As to the method: as §1, §2
The test system of another series is S. aureus (ATCC 25923). Put plainly: Microdilution susceptibility assay (MIC). Conditions: Staphylococcus aureus, ATCC25923. The format is cell-based. Here is the method: as §1, §2
In a further series the test system is C. glabrata (ATCC 90030). Kind of series: Microdilution susceptibility assay (MIC). In kind it is cell-based, Candida glabrata. Conditions: Nakaseomyces glabratus, ATCC90030. As to the method:
as §1, §2

The subject of series [4] is C. parapsilosis (ATCC 22019). Kind of series: Microdilution susceptibility assay (MIC). The following applies: Lodderomyces parapsilosis, ATCC22019. In kind it is cell-based, Candida parapsilosis. As to the method: as §1, §2
Another series deals with C. krusei (ATCC 6258). Kind of series: Microdilution susceptibility assay (MIC). The format is cell-based, Candida krusei. Conditions: Pichia kudriavzevii, ATCC6258. As to the method: as §1, §2
Series [5] has as its system E. faecalis (ATCC 29212). Put plainly: ATP luminescence microbial cell viability assay. The format is cell-based, Enterococcus faecalis. Conditions: 24 h treatment, result in words. Here is the method: (§3) A model from BioTek Instruments Inc. combined with a BacTiter-Glo^TM Microbial Cell Viability assay (Promega Corp., Madison, WI, USA) was used to provide a sensitive and rapid method for determining the number of viable microbial cells in culture based on quantitation of the ATP present. […] After incubation, cultures were added into the wells (final concentration of bacteria was 5 × 10^5 CFU/mL and 2.5 × 10^6 CFU/mL for yeasts). After adding the BacTiter reagent, incubation time for bacteria and yeasts was 5 min and 15 min, respectively.
(§4) The assay generates a “glow-type” luminescent signal, produced by the luciferase reaction. Briefly, after chemicals and strains were incubated for 24 h, 100 µL of the culture was taken from each well and mixed with the same volume of the BacTiter-Glo™ reagent in a white, opaque-walled microtiter plate. Control wells containing medium without cells were prepared to obtain a value for background luminescence. Cells without compound were used as an ATP-positive control. The microplates were further incubated under agitation for 7 min. Bioluminescence was recorded in a multi-detection microplate reader (BioTek Synergy 2 Multi-Mode Microplate Reader, BioTek Instruments, Winooski, VT, USA). In Figure 3, results were given as percentage of untreated control, which is set at 100%. Experiments were performed in triplicate and each sample was measured in four replicates.

The test system of series [6] is E. faecalis (ATCC 51299). Put plainly: ATP luminescence microbial cell viability assay. The following applies: 24 h treatment, result in words. The format is cell-based, Enterococcus faecalis. Here is the method:
as §3, §4

Series [7] relates to A549 human lung adenocarcinoma cell line. Kind of series: MTT assay. In kind it is cell-based. Conditions: Homo sapiens, A549. As to the method: (§5) The anticancer effects of compounds 1–10 on A549 human lung adenocarcinoma (ATCC® CCL-185™), HepG2 human hepatocellular carcinoma (ATCC® HB-8065™), and C6 rat glioma (ATCC® CCL107™) cell lines were assessed using 3-(4,5-Dimethylthiazol-2-yl)-2,5-diphenyltetrazolium bromide (MTT) assay, whereas the selectivity of compounds 1–10 was tested using NIH/3T3 mouse embryonic fibroblast cell line (ATCC® CRL-1658™, London, UK). All cell lines were incubated according to the supplier’s recommendations. The cells were seeded as 1 × 10^4 cells into each well of the 96-well plates. MTT assay was performed as previously described. The compounds were tested between the concentrations equal to 1 mM and 0.000316 mM (1.0, 0.316, 0.10, 0.0316, 0.01, 0.00316, 0.001, 0.000316 mM). Stock solutions of compounds were prepared in dimethyl sulfoxide (DMSO) and further dilutions were made with fresh culture medium. The final DMSO concentration was under 1% [34] and cisplatin was used as a positive control. Inhibition % was calculated for each concentration according to the formula below, and IC50 values were determined by plotting a dose–response curve of inhibition % versus compound concentrations tested. All experiments were performed in quadruplicate.Inhibition % = 100 − [(ODtest compound − ODblank/ODsolvent control − ODblank)] × 100(1)
For orientation: Formazan colour is commonly taken as a measure of viable cells.

For a further series, the system named is C6 rat glioma cell line. Put plainly: MTT assay. In kind it is cell-based. Conditions: Rattus norvegicus, C6. As to the method: as §5
Series [8] relates to HepG2 human hepatocellular carcinoma cell line. Put plainly: MTT assay. In kind it is cell-based. The following applies: Homo sapiens, HepG2. Here is the method: as §5
In series [9] the test system is NIH/3T3 mouse embryonic fibroblast cell line. Kind of series: MTT assay. In kind it is cell-based. Conditions: Mus musculus, NIH3T3, healthy cells for selectivity. As to the method:
as §5

Another series deals with C. albicans. Kind of series: ATP luminescence microbial cell viability assay. The format is cell-based, Candida albicans. The following applies: 24 h treatment, result in words. Here is the method:
as §3
The assay generates a “glow-type” luminescent signal, produced by the luciferase reaction. Briefly, after chemicals and strains were incubated for 24 h, 100 µL of the culture was taken from each well and mixed with the same volume of the BacTiter-Glo™ reagent in a white, opaque-walled microtiter plate. Control wells containing medium without cells were prepared to obtain a value for background luminescence. Cells without compound were used as an ATP-positive control. The microplates were further incubated under agitation for 7 min. Bioluminescence was recorded in a multi-detection microplate reader (BioTek Synergy 2 Multi-Mode Microplate Reader, BioTek Instruments, Winooski, VT, USA). […] Experiments were performed in triplicate and each sample was measured in four replicates.

The test system of another series is C. glabrata. Kind of series: ATP luminescence microbial cell viability assay. Conditions: 24 h treatment, result in words. The format is cell-based, Candida glabrata. As to the method: as §3, §4

Compound `Cn1cccc1C(=O)C=Cc1ccc(-c2cccc([N+](=O)[O-])c2)o1` [Compound 2, 1-(1-Methyl-1H-pyrrol-2-yl)-3-(5-(3-nitrophenyl)furan-2-yl)prop-2-en-1-one] displayed a melting point of 123 to 124 °C. The MIC against C. albicans (ATCC 90028) amounted to 100 µg/mL (≈ 310 µM). This compound gave an MIC in the series on E. coli (ATCC 25922) of 100 µg/mL (≈ 310 µM). The compound also displayed an MIC in the series with E. faecalis (ATCC 29212) [1] of 100 µg/mL (≈ 310 µM). The compound also returned an MIC in the series with E. faecalis (ATCC 51299) [2] of 100 µg/mL (≈ 310 µM). For the same compound, in series [3], inhibition of growth (MIC) required 200 µg/mL (≈ 621 µM). This compound also returned an MIC in the series with S. aureus (ATCC 25923) of 200 µg/mL (≈ 621 µM). This compound also displayed an MIC against C. glabrata (ATCC 90030) of 100 µg/mL (≈ 310 µM). The same compound returned an MIC in series [4] of 100 µg/mL (≈ 310 µM). In the series on C. krusei (ATCC 6258), the MIC amounted to 100 µg/mL (≈ 310 µM). Moreover, the “antimicrobial activity in ATP bioluminescence assay” value (from here on “antimicrobial activity”) in the series on E. faecalis (ATCC 29212) [5] is reported as “sensitive”. The “antimicrobial activity” value in the series on E. faecalis (ATCC 51299) [6] is “antimicrobial activity close to chloramphenicol”. For the same compound, 322 µg/mL (≈ 999 µM) corresponded to half-maximal inhibition in [7] (IC50). The compound further had an IC50 with C6 rat glioma cell line of 258 µg/mL (≈ 800 µM). The compound also registered an IC50 in series [8] of 277 µg/mL (≈ 859 µM). Further, in [9], the IC50 is over 322 µg/mL.

On to `Cn1cccc1C(=O)C=Cc1ccc(-c2ccccc2[N+](=O)[O-])o1` [Compound 3, 1-(1-Methyl-1H-pyrrol-2-yl)-3-(5-(2-nitrophenyl)furan-2-yl)prop-2-en-1-one], for which the melting point is 94 to 95 °C. For the same compound, inhibition of growth against C. albicans (ATCC 90028) (MIC) required 50 µg/mL (≈ 155 µM). Moreover, in the series on E. coli (ATCC 25922), the MIC worked out at 100 µg/mL (≈ 310 µM). In the series on E. faecalis (ATCC 29212) [1], this compound came in with an MIC of 100 µg/mL (≈ 310 µM). Moreover, the MIC in the series with E. faecalis (ATCC 51299) [2] is 200 µg/mL (≈ 621 µM). The compound further yielded an MIC in series [3] of 200 µg/mL (≈ 621 µM). In the series on S. aureus (ATCC 25923), this compound came in with an MIC of 100 µg/mL (≈ 310 µM). Moreover, in the series with C. glabrata (ATCC 90030), inhibition of growth (MIC) required 100 µg/mL (≈ 310 µM). The MIC in [4] came out at 50 µg/mL (≈ 155 µM). The minimal inhibitory concentration (MIC) against C. krusei (ATCC 6258) worked out at 100 µg/mL (≈ 310 µM). Moreover, the “antimicrobial activity” value with E. faecalis (ATCC 29212) [5] is given as “sensitive”. For the same compound, the “antifungal activity in ATP bioluminescence assay” value in the series with C. albicans was “no statistically significant effects”. Moreover, the IC50 in series [7] was over 322 µg/mL. The compound also yielded an IC50 in the series with C6 rat glioma cell line of over 322 µg/mL. Further, the IC50 in series [8] turned out to be 27 µg/mL (≈ 83.8 µM). In addition, in series [9], the 50% inhibitory concentration (IC50) is over 322 µg/mL.

`Cn1cccc1C(=O)C=Cc1ccc(-c2ccc(Cl)cc2[N+](=O)[O-])o1` [Compound 4, 1-(1-Methyl-1H-pyrrol-2-yl)-3-(5-(2-nitro-4-chlorophenyl)furan-2-yl)prop-2-en-1-one] displayed a melting point of 133 to 134 °C. This compound yielded an MIC with C. albicans (ATCC 90028) of 200 µg/mL (≈ 561 µM). The compound further displayed an MIC in the series with E. coli (ATCC 25922) of 100 µg/mL (≈ 280 µM). Besides, the MIC against E. faecalis (ATCC 29212) [1] was 200 µg/mL (≈ 561 µM). In addition, the MIC with E. faecalis (ATCC 51299) [2] came out at 200 µg/mL (≈ 561 µM). Moreover, in series [3], the MIC was 100 µg/mL (≈ 280 µM). The MIC against S. aureus (ATCC 25923) stood at 100 µg/mL (≈ 280 µM). The MIC in the series on C. glabrata (ATCC 90030) came out at 100 µg/mL (≈ 280 µM). Moreover, it took 50 µg/mL (≈ 140 µM) to inhibit growth in [4] (MIC). Besides, the MIC in the series with C. krusei (ATCC 6258) was found to be 200 µg/mL (≈ 561 µM). The “antifungal activity in ATP bioluminescence assay” value with C. glabrata is reported as “antifungal activity close to ketoconazole”. In series [7], this compound returned a half-maximal inhibitory concentration (IC50) of over 357 µg/mL. The same compound displayed an IC50 in the series with C6 rat glioma cell line of over 357 µg/mL. In [8], this compound gave an IC50 of 100 µg/mL (≈ 280 µM). Besides, the IC50 in series [9] worked out at 36 µg/mL (≈ 101 µM).
